Experimental data taken from patent US20110319362A1, “STAT3 LIGANDS AND THERAPEUTIC USES THEREOF” (priority 2008, published 2011).
pIC50, pKd: −log10 of the molar value. Where two headings read alike, the source gives them in different places. Blank lines part the entries; values can stand above or below the compound they belong to. Where a SMILES comes first, the peptide text is derived from it. [ ]: non-standard residue; d: D form. The star is where a group is joined. 5FAM = O=C1OC2(c3ccc(O)cc3Oc3cc(O)ccc32)c2ccc(C(=O)*)cc21; pY = N[C@@H](Cc1ccc(OP(=O)(O)O)cc1)C(=O)O; βAla = NCCC(=O)O

Experiments:
[1] = test system: MDA-MB-468 cancer cell line; test: Cell growth assay (WST-8); format: cell-based; settings: Homo sapiens, MDA-MB-468, 96 h, WST-8, 4 days
Method: (§1) The effect of STAT3 compounds on cell growth was evaluated by a WST-8 [2-(2-methoxy-4-nitrophenyl)-3-(4-nitrophenyl)-5-(2,4-disulfophenyl)-2H-tetrazolium, monosodium salt assay (Dojindo Molecular Technologies, Inc). Cells (3000-4000 cells in each well) were cultured in 96-well tissue culture plates in medium (200 μL) containing various concentrations of STAT3 compounds for 4 days. At the end of incubation, WST-8 dye (20 μL) was added to each well and incubated for an additional 1-3 h, and then the absorbance was measured in a microplate reader (Molecular Devices) at 450 nm. Cell growth inhibition was evaluated as the ratio of the absorbance of the sample to that of the control.

STAT3 protein = target: T1, STAT3 protein (Homo sapiens, UniProt P40763); test: In vitro competitive STAT3 binding assay (fluorescence polarization)
T1 construct: human STAT3 protein (residues 122-722) fused to His-tag; His-tag
Description: To quantitatively determine the binding affinities of STAT3 inhibitors to STAT3 protein, a sensitive and quantitative in vitro binding assay was developed based upon fluorescence polarization (FP) method. For this FP assay, 5-carboxyfluorescein (5-Fam) was coupled to a phosphopeptide (phospho-Tyr-Leu-Pro-Gln-Thr-Val-amide) with two beta-alanine and one glycine residues as the spacer between 5-Fam and the phosphopeptide to obtain 5-Fam-beta-Ala-beta-Ala-Gly-phospho-Tyr-Leu-Pro-Gln-Thr-Val-amide as the fluorescently tagged tracer, which was named as STT2 peptide. […] The recombinant human STAT3 protein (residues 122-722) fused to His-tag was stable and soluble.
Competitive binding experiments were carried out using 150 nM of STAT3 protein and 5 nM of STT2 peptide with different concentrations of a tested STAT3 inhibitor. For each experiment, two controls were included. One control contained STAT3 protein and STT2 peptide, and the second control contained STT2 peptide only. The polarization values were measured after 2-3 hours of incubation using an ULTRA READER (Tecan U.S. Inc., Research Triangle Park, N.C.). IC50 values, the inhibitor concentration at which 50% of the fluorescently tagged STT2 peptide is displaced by STAT3 inhibitors, was determined from a plot using nonlinear least-squares analysis using GRAPHPAD PRISM software (GraphPad Software, Inc., San Diego, Calif.). […]

[2] = test system: MDA-MB-231 cancer cell line; test: Cell growth assay (WST-8); format: cell-based; settings: Homo sapiens, MDA-MB-231, 96 h, WST-8, 4 days
Method: as §1

[3] = read-out: Inhibition of cell growth IC50, MDA-MB-468 cancer cell line
[4] = Table 2 prints no column heads, columns and unit as in Table 1, read-out: Inhibition of cell growth IC50, MDA-MB-468 cancer cell line (pro-drugs, Table 2)
[5] = Table 2 prints no column heads, columns and unit as in Table 1, read-out: Inhibition of cell growth IC50, MDA-MB-231 cancer cell line (pro-drugs, Table 2)
[6] = read-out: Inhibition of cell growth IC50, MDA-MB-231 cancer cell line
[7] = FP competitive binding, fluorescently tagged STT2 peptide tracer, read-out: Binding affinities to STAT3 IC50

T1 sequence (P40763 122-722): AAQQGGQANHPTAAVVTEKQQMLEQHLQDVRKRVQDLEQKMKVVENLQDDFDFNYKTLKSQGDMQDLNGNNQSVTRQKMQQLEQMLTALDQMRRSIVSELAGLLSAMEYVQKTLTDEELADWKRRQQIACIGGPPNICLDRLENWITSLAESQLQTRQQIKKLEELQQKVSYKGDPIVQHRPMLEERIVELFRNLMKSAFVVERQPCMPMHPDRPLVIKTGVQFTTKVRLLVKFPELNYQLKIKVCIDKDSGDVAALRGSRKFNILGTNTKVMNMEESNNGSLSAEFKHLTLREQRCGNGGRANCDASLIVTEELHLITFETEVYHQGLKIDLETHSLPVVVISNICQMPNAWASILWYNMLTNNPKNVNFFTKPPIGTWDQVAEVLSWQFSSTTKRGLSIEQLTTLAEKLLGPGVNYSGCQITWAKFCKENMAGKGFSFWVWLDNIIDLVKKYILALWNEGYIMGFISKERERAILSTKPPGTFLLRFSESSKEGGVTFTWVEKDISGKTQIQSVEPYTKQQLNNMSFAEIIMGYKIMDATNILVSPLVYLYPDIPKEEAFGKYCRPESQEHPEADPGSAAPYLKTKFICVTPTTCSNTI

SMILES: NC(=O)CC[C@H](NC(=O)[C@@H]1CCC2CCCC[C@H](NC(=O)c3cc4cc(C(F)(F)P(=O)(O)O)ccc4[nH]3)C(=O)N21)C(=O)NCc1ccccc1 (stereo partly shown) [Example 59]
- pIC50 [1, 3]: < 4.00
- pIC50 (STAT3 protein): > 6.00

- pIC50 [1, 4]: < 4.00
SMILES: CCCCCCCCCCCCCCCCOP(=O)(OCCCCCCCCCCCCCCCC)C(F)(F)c1ccc2cc(C(=O)N[C@H]3CCCC[C@H]4CC[C@@H](C(=O)NCCc5cn[nH]c5)N4C3=O)[nH]c2c1

SMILES: CC(C)C[C@H](NC(=O)[C@H](Cc1ccc(OP(=O)(O)O)cc1)NC(=O)CNC(=O)CCNC(=O)CCNC(=O)c1ccc2c(c1)C(=O)OC21c2ccc(O)cc2Oc2cc(O)ccc21)C(=O)N1CCC[C@H]1C(=O)N[C@@H](CCC(N)=O)C(=O)N[C@H](C(=O)N[C@H](C(N)=O)C(C)C)[C@@H](C)O [STT2 peptide, 5-Fam-beta-Ala-beta-Ala-Gly-phospho-Tyr-Leu-Pro-Gln-Thr-Val-amide, reference compound] ({5FAM-βAla-βAla}-G[pY]LPQTV-NH2)
- pKd (STAT3 protein): 7.33

SMILES: CC(C)(C)C(=O)OCOP(=O)(COc1ccc(C[C@H](NC(=O)OCc2ccccc2)C(=O)N[C@H]2CCCCC3CC[C@@H](C(=O)N[C@@H](CCC(N)=O)C(=O)NCc4ccccc4)N3C2=O)cc1)OCOC(=O)C(C)(C)C (stereo partly shown)
- pIC50 [1, 4]: < 4.30
- pIC50 [2, 5]: < 4.30

SMILES: CC(=O)N[C@@H](Cc1ccc(OCP(=O)(O)O)cc1)C(=O)N[C@H]1CCCCC2CC[C@@H](C(=O)N[C@@H](CCC(N)=O)C(=O)NCc3ccccc3)N2C1=O (stereo in doubt) [Example 31]
- pIC50 [2, 6]: < 4.00
- pIC50 (STAT3 protein): > 5.00

SMILES: CCCCCCCCCCCCCCCCOP(=O)(O)C(F)(F)c1ccc2cc(C(=O)N[C@H]3CCCC[C@H]4CC[C@@H](C(=O)NC(CCC(N)=O)C(=O)NCc5ccccc5)N4C3=O)[nH]c2c1 (stereo partly shown)
- pIC50 [1, 4]: < 4.30

SMILES: CCCCCCCCN(CCCCCCCC)[C@@H](Cc1ccc(OP(=O)(O)O)cc1)C(=O)N[C@H]1CCCCC2CC[C@@H](C(=O)N[C@@H](CCC(N)=O)C(=O)NCc3ccccc3)N2C1=O (stereo partly shown)
- pIC50 [2, 6]: < 4.00
- pIC50 (STAT3 protein; [7]): > 4.00

SMILES: CCCCCCCCCCCCCCCCNC(=O)C(CCC(N)=O)NC(=O)[C@@H]1CCC2CCCC[C@H](NC(=O)c3cc4cc(C(F)(F)P(=O)(O)O)ccc4[nH]3)C(=O)N21 (stereo partly shown) [Example 66]
- pIC50 [1, 3]: < 4.00
- pIC50 (STAT3 protein): > 6.00

SMILES: CC(=O)N[C@@H](Cc1ccc(CP(=O)(O)O)cc1)C(=O)N[C@H]1CCCC[C@H]2CC[C@@H](C(=O)N[C@@H](Cc3c[nH]cn3)C(=O)NCc3ccccc3)N2C1=O [Example 27]
- pIC50 [2, 6]: < 4.00
- pIC50 (STAT3 protein): < 5.00

SMILES: NC(=O)CCC(NC(=O)[C@@H]1CCC2CCCC[C@H](NC(=O)c3cc4cc(C(F)(F)P(=O)(O)O)ccc4o3)C(=O)N21)C(=O)NCc1ccccc1 (stereo partly shown) [Example 65]
- pIC50 [1, 3]: < 4.00
- pIC50 (STAT3 protein; [7]): < 5.00

- pIC50 [1, 4]: < 4.00
SMILES: CC(C)OC(=O)OCOP(=O)(OCOC(=O)OC(C)C)C(F)(F)c1ccc2[nH]c(C(=O)N[C@H]3CCCCC4CC[C@@H](C(=O)NCCc5cn[nH]c5)N4C3=O)cc2c1 (stereo partly shown) [Example 69]

SMILES: CCCCCCCCCCCCCCCCN1CCN(CCC(=O)N[C@@H](Cc2ccc(OP(=O)(O)O)cc2)C(=O)N[C@H]2CCCCC3CC[C@@H](C(=O)NCCc4nnn[nH]4)N3C2=O)CC1 (stereo partly shown)
- pIC50 [1, 3]: > 4.30
- pIC50 [2, 6]: > 4.30

SMILES: CCOP(=O)(O)CCCCCC(=O)N[C@H]1CCCC[C@H]2CC[C@@H](C(=O)N[C@@H](CCC(N)=O)C(=O)NCc3ccccc3)N2C1=O [Example 23]
- pIC50 [2, 6]: < 4.00
- pIC50 (STAT3 protein; [7]): < 4.00

SMILES: CCCCCCCCCCCCCCCCNC(=O)C(CCC(N)=O)NC(=O)[C@@H]1CCC2CCCC[C@H](NC(=O)c3cc4cc(C(F)(F)P(=O)(OCOC(=O)C(C)(C)C)OCOC(=O)C(C)(C)C)ccc4[nH]3)C(=O)N21 (stereo partly shown) [Example 67]
- pIC50 [1, 4]: < 4.00

- pIC50 [1, 4]: > 4.30
SMILES: CC(C)(C)C(=O)OCOP(=O)(OCOC(=O)C(C)(C)C)C(F)(F)c1ccc2[nH]c(C(=O)N[C@H]3CCCCC4CC[C@@H](C(=O)NCCc5cn[nH]c5)N4C3=O)cc2c1 (stereo partly shown) [Example 63]

SMILES: CC(C)(C)C(=O)OCOP(=O)(Cc1ccc(C[C@H](NC(=O)OCC2c3ccccc3-c3ccccc32)C(=O)N[C@H]2CCCCC3CC[C@@H](C(=O)N[C@@H](CCC(N)=O)C(=O)NCc4ccccc4)N3C2=O)cc1)OCOC(=O)C(C)(C)C (stereo partly shown)
- pIC50 [1, 4]: > 5.00
- pIC50 [2, 5]: > 5.00

SMILES: CC(C)(C)C(=O)OCOP(=O)(O)COc1ccc(C[C@H](NC(=O)OCc2ccccc2)C(=O)N[C@H]2CCCCC3CC[C@@H](C(=O)N[C@@H](CCC(N)=O)C(=O)NCc4ccccc4)N3C2=O)cc1 (stereo partly shown)
- pIC50 [1, 4]: < 4.30
- pIC50 [2, 5]: < 4.30
